In patent publication US6972319B1, “Pituitary adenylate cyclase activating peptide (PACAP)receptor 3 (R3) agonists and their pharmacological methods of use” (priority 1999, dated 2005):
No end group written: not given here.

Assays:
[1] = Peptide-induced elevation of plasma insulin after IVGTT in rats; type: in vivo; conditions: one minute after IVGTT (0.4 g/kg glucose), Wistar rats
Protocol: Wistar rats are fasted overnight (17 hrs) and then anesthetized with pentobarbital (0.1 ml/100 g BW). Glucose (0.4 g/kg dissolved in 1% human albumin-saline)+/−peptide (dissolved in 1% human albumin-saline) is injected intravenously into the tail vein. The rats are eye-bled 1 minute after the injection and 50-100 ul of the plasma are assayed for insulin level with the Linco RIA kit (Linco Research, Inc., St. Charles, Mo.).
In accordance with the protocol of example 2 above, overnight fasted Wistar rats were anesthetized with pentobarital; i.v. injected with glucose±peptide and eye bled after 1 minute. N=12 rats/group. […] The peptide or vehicle was given i.v. followed by a glucose load given i.p. in accordance with example 3. The plasma glucose was followed over the time period indicated.
Plasma insulin: Data are expressed as % of plasma insulin one minute after IVGTT (0.4 g/kg glucose) with either saline, 0.1 nmol/kg P51, P55, P60, P66 or 1 nmole/kg of the other peptides in Wistar rats. Blood was drawn from the eye and insulin was measured with the rat insulin RIA kit (Linco Research, Inc., St. Charles, Mo.).

PACAP-R3 = molecular target: T1, PACAP-R3 (Homo sapiens, UniProt P41587); assay: Cyclic AMP SPA on CHO cells expressing PACAP R3; type: cell-based; design: expressed in transfected cells; host or cells: CHO cells (Geneticin selection); conditions: for EC50: cAMP SPA, CHO cells transfected with PACAP-R3, concentration at which 50% of maximum PACAP27 activity is achieved, NA = no detectable activities, read-out: R3 EC50; for R3 Selectivity: ratio of EC50 at R2 versus EC50 at R3
T1 sequence (P41587 24-438): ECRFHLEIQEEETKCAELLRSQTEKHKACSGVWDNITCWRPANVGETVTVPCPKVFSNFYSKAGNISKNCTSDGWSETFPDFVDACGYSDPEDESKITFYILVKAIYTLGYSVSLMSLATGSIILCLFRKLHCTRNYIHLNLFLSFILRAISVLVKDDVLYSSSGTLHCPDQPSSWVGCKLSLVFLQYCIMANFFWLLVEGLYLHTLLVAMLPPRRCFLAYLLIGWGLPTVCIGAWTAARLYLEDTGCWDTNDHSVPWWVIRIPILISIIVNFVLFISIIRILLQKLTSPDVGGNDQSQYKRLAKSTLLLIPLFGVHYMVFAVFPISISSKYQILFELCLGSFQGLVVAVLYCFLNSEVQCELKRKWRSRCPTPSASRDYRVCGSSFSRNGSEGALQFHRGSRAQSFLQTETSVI
In short: (§1)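 cAMP SPA readout; CHO stable lines, 24 h culture before use. Peptide treatment 15 min, 37 C, buffer with IBMX 100 uM plus trypsin inhibitor and bacitracin. EC50 = conc. reaching half of max PACAP27 response; R3 selectivity = EC50(R2)/EC50(R3).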

PACAP-R2 = molecular target: T2, PACAP-R2 (Homo sapiens, UniProt P32241); assay: Cyclic AMP SPA on CHO cells transfected with PACAP-R2; type: cell-based; conditions: cAMP SPA, concentration at which 50% of maximum PACAP27 activity is achieved, NA = no detectable activities, read-out: R2 EC50
T2 construct: expressed in transfected cells; host or cells: CHO cells
T2 sequence (P32241 31-457): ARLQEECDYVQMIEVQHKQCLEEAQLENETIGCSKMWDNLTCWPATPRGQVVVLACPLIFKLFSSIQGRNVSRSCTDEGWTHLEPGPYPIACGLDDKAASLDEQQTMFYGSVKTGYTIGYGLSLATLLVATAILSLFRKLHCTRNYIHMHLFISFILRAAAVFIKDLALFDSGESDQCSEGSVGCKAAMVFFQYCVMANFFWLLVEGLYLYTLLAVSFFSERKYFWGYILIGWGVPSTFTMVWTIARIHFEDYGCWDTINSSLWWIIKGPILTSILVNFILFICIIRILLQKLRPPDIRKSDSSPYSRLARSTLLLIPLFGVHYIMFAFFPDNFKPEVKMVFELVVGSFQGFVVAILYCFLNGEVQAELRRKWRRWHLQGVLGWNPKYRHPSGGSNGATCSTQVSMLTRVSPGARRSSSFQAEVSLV
In short: as §1

[2] = Intraperitoneal glucose tolerance test (IPGTT), plasma glucose in rats; type: in vivo, Wistar rats; conditions: for elevation of plasma glucose 30 minutes after IPGTT: 1 nmole/kg s.c., rats, FIG. 7; for Plasma Glucose (% of Basal) s.c.: plasma glucose after IPGTT (1 g/kg glucose), 1 nmol/kg peptide s.c.
Protocol: Wistar rats are fasted overnight and then anesthetized with pentobarbital. The rats were eye-bled (zero time) and the peptide (in 1% human albumin) was injected into the tail vein. Five minutes later, 1 g/kg of glucose (in saline) was injected intraperitoneally, and the rats were eye-bled after 15, 30 and 60 minutes. Plasma glucose levels were determined using the Technicon Axon autoanalyzer, Bayer Diagnosics division of Bayer Corporation, Tarrytown N.Y., operated using Method No. SM4-2143F90“Glucose”.
Wistar rats were fasted overnight and then anesthetized with Pentobarbital. The rats were eye-bled (zero time) and the peptide (in 1% human albumin) was injected subcutaneously. Five minutes later, 1 g/kg of glucose (in saline) was injected intraperitoneally, and the rats were eye-bled after 30 minutes.
Plasma glucose: Data are expressed as % of vehicle of plasma glucose area under the curve after IPGTT (1 g/kg glucose) after treatment with 1 nmol/kg dose of the peptide. […] The present inventors have shown for the first time that this is because the effects of R2 and R3 on glucose tend to cancel each other out. […] Therefore, R3-selectivity appears to be a desirable attribute for medicaments which are to be employed in achieving blood glucose reduction, for treatment of type 2 diabetes.

rat islets = assay: Insulin secretion by isolated rat islets; type: cell-based, Sprague-Dawley rats; conditions: 10 nM peptide, 2 hrs, 8 mM glucose; % of [insulin] in 8 mM glucose alone
Protocol: Sprague Dawley rats (275-320 g) were used as the source of donor islets. Briefly, the pancreas was filled with 10 ml of cold reconstituted Liberase RI (Boehringer Manheim), harvested and incubated with additional 5 ml enzyme solution in water bath for 30 minutes. Tissue suspension was washed twice with cold 10% FBS/Hanks buffer (Gibco), resuspended in 8 ml 25% ficoll (Sigma) and then layered with 5 ml each of 23%, 20% and 11% ficoll. The islets in the 20% layer after centrifugation were removed, washed twice with cold 10% FBS/Hank buffer and resuspended in 10% FBS/RPMI 1640 media (Sigma).
Islet insulin release: Rat islets were isolated from Sprague-Dawley rats as described in example 1 and treated with either vehicle or specified peptide (10 nM) for 2 hrs. Insulin concentration in the medium was measured with the Linco rat insulin RIA kit. Glucose concentration in the medium was 8 mM. The data are expressed as % of [insulin] in 8 mM glucose alone.

Compound	Plasma Insulin (% of Basal) ([1]; 1 nmole/kg peptide i.v.)	EC50 (PACAP-R3)	EC50 (PACAP-R2)	Plasma Insulin (% of Basal) ([1]; 0.1 nmol/kg peptide i.v.)	R3 Selectivity (PACAP-R3)	elevation of plasma glucose 30 minutes after IPGTT [2]	Plasma Glucose (% of Basal) s.c. ([2]; % of vehicle)	Islet Insulin Release (% of Basal) (rat islets)	Plasma Glucose (% of Basal) i.v. ([2]; plasma glucose area under the curve after IPGTT (1 g/kg glucose), 1 nmol/kg peptide i.v., % of vehicle)
CC[C@H](C)[C@H](NC(=O)[C@H](CO)NC(=O)[C@H](CCC(N)=O)NC(=O)[C@H](CC(C)C)NC(=O)[C@H](Cc1ccc(O)cc1)NC(=O)[C@H](CCCCN)NC(=O)[C@H](CCCCN)NC(=O)[C@@H](NC(=O)[C@H](C)NC(=O)[C@@H](NC(=O)[C@H](CCC(N)=O)NC(=O)[C@H](CCCCN)NC(=O)[C@H](CCCNC(=N)N)NC(=O)[C@H](CC(C)C)NC(=O)[C@H](CCCNC(=N)N)NC(=O)[C@@H](NC(=O)[C@H](Cc1ccc(O)cc1)NC(=O)[C@H](CC(N)=O)NC(=O)[C@H](CC(=O)O)NC(=O)[C@@H](NC(=O)[C@H](Cc1ccccc1)NC(=O)[C@@H](NC(=O)[C@H](C)NC(=O)[C@H](CC(=O)O)NC(=O)[C@H](CO)NC(=O)[C@@H](N)Cc1c[nH]cn1)C(C)C)[C@@H](C)O)[C@@H](C)O)C(C)C)C(C)C)C(=O)N[C@@H](CCCCN)C(=O)N[C@@H](CCCCN)C(=O)N[C@@H](CCCCN)C(=O)N[C@@H](CCCNC(=N)N)C(=O)O [Peptide R3P80]	360%	0.44 nM							
H-HSDAVFTDNYTRLRKQMAAKKYLNSIKNKRY [Peptide R3P55]		0.17 nM	50 nM	208%	280				
HAEGTFTSDV SSYLEGQAAK EFIAWLVKGR-NH2 (HAEGTFTSDVSSYLEGQAAKEFIAWLVKGR-NH2) [GLP-1, incretin hormone released from the intestinal L-cell, a known insulin secretagogue, reference compound]						enhance glucose disposal			
HSDAVFTDNYTRLRKQLAAKKYLNDIKK-NH2 [Peptide R3P13]		5 nM	163 nM		33	significantly reduced			
HSDAVFTDNYTRLRKQLAAKKYLNDIKKGGT [Peptide R3P12]	302%	0.5 nM	> 100 nM		>200	significantly reduced	76%	324%	
HSDAVFTDNYTRLRKQLAAKKYLNDIKKKRY [Peptide R3P36]	255%	0.4 nM	> 90 nM		>200		78%		73%
HSDAVFTDNYTRLRKQMAAKKYLNSIKK [Peptide R3P51]		0.26 nM	23 nM	259%	90				
HSDAVFTDNYTRLRKQMAVKKYLNSIKKGGT [Peptide R3P9]		2 nM	40 nM		20			221%	
HSDAVFTDNYTRLRKQVAAKKYLQSIKK [Peptide R3P60]		1 nM	120 nM	283%	120				
HSDAVFTDNYTRLRKQVAAKKYLQSIKKKR [Peptide R3P77]	388%	0.4 nM	200 nM		500				
HSDAVFTDNYTRLRKQVAAKKYLQSIKNKRY [Peptide R3P66]		0.4 nM	100 nM	388%	250		82%	184%	
HSDAVFTDNYTRLRKQVAVKKYLQSIKKK [Peptide R3P81]	302%	0.5 nM	50 nM		100				
HSDAVFTENYTKLRKQLAAKKYLNDLLNGGT [Peptide R3P10]		11 nM	3 nM		0.3			174%	
PACAP 27: 27-amino acid form of pituitary adenylate cyclase activating peptide with an amidated carboxyl terminus [reference compound]	320%							186%	
